Laboratory results from patent publication US20250127735A1, “NOVEL COMPOSITION COMPRISING N-ACETYLCYSTEINE FOR OVERCOMING THE ADVERSE EFFECTS OF A CHEMOTHERAPY” (PRONUTRI, priority 2022, published 2025).
Entries after “also recorded” stand apart in the source; their conditions may differ.

Assays:
[1] = tested on: Arnt2, Piezo 2 and CaVα2δ-1 gene expression; test: qPCR of reporter genes in primary cultured DRG neurons exposed to cisplatin plus test molecules; assay type: cell-based, mouse; settings: for effect on Piezo2, CaVα2δ-1 and ARNT2 expression, molecule taken alone: ex vivo primary cultured neurons, 24 h exposure to 1.25 μg/ml cisplatin (FIGS. 5-9)
Procedure: Treatment of the DRGs for 24 hours.
The effect of different molecules was tested on the expression of the same reporter genes, Pizeo 2, CaVα2δ-1 and ARNT2, using qPCR on primary cultured DRG neurons: • NAC • Beta-carotene (provitamin A) • Vitamin B12 • Luteolin (flavone)

[2] = tested on: Piezo2, CaVα2δ-1 and ARNT2 expression; test: Reporter gene expression in vivo in the animal exposed to a chemotherapy protocol; settings: animal exposed to a chemotherapy protocol (not shown)
[3] = tested on: tactile hypersensitivity triggered by cisplatin and paclitaxel; test: Von Frey test of tactile hypersensitivity / chemo-induced neuropathy; assay type: in vivo, mouse
[4] = tested on: DRG neurons; test: Phase-contrast microscopy of cultured DRG neurons (morphology, neuronal networks); assay type: cell-based, mouse; settings: for effect on the morphology of DRG neurons (cell or network level): molecule taken alone with cisplatin, micrographs not shown
[5] = tested on: Piezo 2, CaVα2δ-1, ARNT2, Mafb and Kv1.4 gene expression; test: qPCR of ion channel and transcription factor gene expression in mouse DRG primary culture treated with chemotherapy or oxidizing agent; assay type: cell-based
Procedure: Model: C57Bl6 females, 8 to 15 weeks old (sexually mature young adult mice)
The next morning, place 1.25 μg/ml cisplatin with the other molecules to be tested. […]
The RNA is extracted using Macherey-Nagel's “NucleoSpin RNA” kit.
Reverse transcriptions were performed following the protocol of the “SuperScript III Reverse Transcriptase” kit from Thermo Fisher Scientific, doubling the quantities of RNA and products used in order to obtain a higher concentration of cDNA.
The qPCRs were performed with undiluted cDNA obtained by reverse-transcription using 4.625 μL of cDNA and 5.375 μL of SyberROX PCR Mix (final 10 μL per well).
When the cycle threshold (CT)>35, the gene is considered to be not expressed in the cells analyzed.
To compare our results with and without treatment, we calculated the delta between the target gene and the reference gene (36B4) for each condition (e.g. dCTPIEZO2=CTPIEZO2−CT36B4=27.4−21.6=5.8 (control); 30.6-23.4=7.2 (cisplatin)).
We then calculated the delta delta CT of the target gene for the test condition and the control conditions (e.g. ddCTPIEZO2=dCTPIEZO2 (cisplatin)−[…]=7.2−5.8=1.4).
Finally, we determined the relative expression by calculating: 2^^−ddCT (e.g. for PIEZO2:2^^−ddCT=2^^−1.4=0.40).
The results correspond to the mean±SEM.
Mouse DRGs resulting from primary culture were treated with TBHP at 10 or 30 μM or with 1.25 μg/ml cisplatin (positive control) versus control (CTRL). mRNA expression was measured by qPCR and normalized with the 36B4 reference gene. The results correspond to the mean±SEM.

CC(=O)N[C@@H](CS)C(=O)O [NAC, N-acetylcysteine]
effect on Piezo2, CaVα2δ-1 and ARNT2 expression, molecule taken alone [1]: allow Piezo2, CaVα2δ-1 and ARNT2 expression levels to rise; also recorded: strongly limits this disruption in expression | Piezo2, CaVα2δ-1 and ARNT2 expression levels in vivo [2]: allow Piezo2, CaVα2δ-1 and ARNT2 expression levels to rise | chemo-induced neuropathies in a mouse model ([3]; mouse model): suppresses the resulting neuropathies | tactile hypersensitivity in response to mechanical stimuli (Von Frey test) ([3]; triggered by cisplatin and paclitaxel (not shown)): dramatically reduce tactile hypersensitivity | effect on the morphology of DRG neurons (cell or network level) [4]: protective effect

CC(C)(C)OO [TBHP, tert-butyl hydroperoxide]
expression of Kv1.4 (negative control) ([5]; TBHP at 10 or 30 μM (FIG. 4)): unaffected

CC1=C(/C=C/C(C)=C/C=C/C(C)=C/C=C/C=C(C)/C=C/C=C(C)/C=C/C2=C(C)CCCC2(C)C)C(C)(C)CCC1 [beta-carotene, Beta-carotene]
effect on Piezo2, CaVα2δ-1 and ARNT2 expression, molecule taken alone [1]: effect only at a 5 μM dose, and not at the lower doses tested (0.3, 1 and 3 μM) | toxicity to cultured neurons ([4]; beta-carotene 5 μM (not shown)): slightly toxic

N.N.[Cl][Pt][Cl] [cisplatin]
relative expression of PIEZO2 (2^-ddCT) ([5]; cells treated with cisplatin compared to control cells normalized to 1, reference gene 36B4): 0.40 | effects on Mafb mRNA expression ([5]; cisplatin 1.25 μg/ml, 0, 4, 8 and 16 h, normalized with 36B4 (FIG. 3)): not significant

O=c1cc(-c2ccc(O)c(O)c2)oc2cc(O)cc(O)c12 [luteolin, Luteolin]
effect on Piezo2, CaVα2δ-1 and ARNT2 expression, molecule taken alone [1]: does not appear to bring any improvement | effect on the morphology of DRG neurons (cell or network level) [4]: does not appear to bring any improvement

cobalamin [vitamin B12]
effect of vitamin B12 taken alone on gene expression ([1]; dose of 25 and 50 μM, 24 h, 1.25 μg/ml cisplatin (FIG. 7)): no effect | effect on Piezo2, CaVα2δ-1 and ARNT2 expression, molecule taken alone [1]: does not appear to have a conclusive chemoprotective effect | toxicity to neuronal morphology ([4]; vitamin B12 at a dose of 50 μM (not shown)): some toxicity
